The results in this text go back to patent US11884653B2, “Arylnaphthalene compounds as vacuolar-ATPase inhibitors and the use thereof” (Purdue Research Foundation, priority 2018, dated 2024).

Molecules are shown by their SMILES.

The target in the experiment is V-ATPase. In words: acridine orange quenching (proton-pumping function of V-ATPase) in isolated HEK293 vesicles. Type of experiment: biochemical. To be noted: read-out: AO Quenching IC50. Here is the method:
To assess if ability of diphyllin and derivatives to inhibit endosomal acidification is due to the expected ability of diphyllin to inhibit V-ATPase activity, compounds were assayed for inhibition of both the proton-pumping and ATPase functions of the isolated V-ATPase enzyme. V-ATPase containing vesicles were isolated from HEK293 cells following methods similar to that found in […]. (Zoncu, R. et al., Science 2011, 334, 678-683). To determine the effect of compounds upon the proton pumping function of V-ATPase, isolated vesicles were incubated with acridine orange and the compound or vehicle for 1 h prior to the addition of ATP which initiated pump activity. The quenching of the 530 nm emission of acridine orange was measured over 1h before addition of nigericin to relax the proton gradient within vesicles. IC50 values against the proton-pumping function of V-ATPase could be assessed by quantifying the change in Acridine Orange (AO) fluorescence immediately before and after the addition of nigericin.
HEK293 vesicle isolation-Cells were grown to confluency in a 175 cm^2 flask (Corning) before growth media was removed and replaced with serum-free DMEM for 2 h. 1 μM FCCP in DMEM was then added for 15 min before cells were scrapped form the plate and pelleted at 1000×g for 5 min. […]

Take `COc1cc2c(OCCCN3CCN(CCO)CC3)c3c(c(-c4ccc5c(c4)OCO5)c2cc1OC)C(=O)OC3` [Compound 2i, 9-(benzo[d][1,3]dioxol-5-yl)-4-(3-(4-(2-hydroxyethyl)piperazin-1-yl)propoxy)-6,7-dimethoxynaphtho[2,3-c]furan-1(3H)-one]: the IC50 is 61 ± 2.84 nM.
